Measurements as given in patent US4999042A, “Phenyl oximino-acetate fungicides” (Imperial Chemical Industries PLC, priority 1986, dated 1991).

What follows are molecules tested on Puccinia recondita (wheat) (assay: Foliar fungal disease control, Puccinia recondita on wheat). Conditions: 100 ppm foliar spray plus root drench approx. 40 ppm a.i./dry soil, 1-2 days before inoculation.
Format: in vivo

Row | SMILES | disease control grading, PUCCINIA RECONDITA (WHEAT)
1 | CON=C(C(=O)OC)c1ccccc1NC(=O)c1ccco1 (single isomer, unassigned) [Compound 13] | 0 (60-100% of disease on untreated plants)
2 | CON=C(C(=O)OC)c1cccc2c1oc1ccccc12 (single isomer, unassigned) [Compound 18] | 3 (trace - 5% of disease on untreated plants)
3 | CO/N=C(\C(=O)OC)c1ccccc1Oc1ccccc1 [Compound 5, methyl O-methyl(2-phenoxyphenyl)oximino-acetate] | 0 (60-100% of disease on untreated plants)
4 | CON=C(C(=O)OC)c1ccccc1Oc1ccc([N+](=O)[O-])cc1 (single isomer, unassigned) [Compound 7] | 0 (60-100% of disease on untreated plants)
5 | CON=C(C(=O)OC)c1ccccc1/C=C/c1ccco1 (single isomer, unassigned) [Compound 3] | 0 (60-100% of disease on untreated plants)

These molecules were tested on Erysiphe graminis hordei (barley) (assay: Foliar fungal disease control, Erysiphe graminis hordei on barley). Conditions: 100 ppm foliar spray plus root drench approx. 40 ppm a.i./dry soil, inoculated 24 hours before treatment.
Format: in vivo

Row | SMILES | disease control grading, ERYSIPHE GRAMINIS HORDEI (BARLEY)
6 | CON=C(C(=O)OC)c1ccccc1NC(=O)c1ccco1 (single isomer, unassigned) [Compound 13] | 0 (60-100% of disease on untreated plants)
7 | CON=C(C(=O)OC)c1cccc2c1oc1ccccc12 (single isomer, unassigned) [Compound 18] | 0 (60-100% of disease on untreated plants)
8 | CO/N=C(\C(=O)OC)c1ccccc1Oc1ccccc1 [Compound 5, methyl O-methyl(2-phenoxyphenyl)oximino-acetate] | 3 (trace - 5% of disease on untreated plants)
9 | CON=C(C(=O)OC)c1ccccc1Oc1ccc([N+](=O)[O-])cc1 (single isomer, unassigned) [Compound 7] | 1 (26-59% of disease on untreated plants)
10 | CON=C(C(=O)OC)c1ccccc1/C=C/c1ccco1 (single isomer, unassigned) [Compound 3] | 0 (60-100% of disease on untreated plants)

The molecules below were run on Venturia inaequalis (apple) (assay: Foliar fungal disease control, Venturia inaequalis on apple). Conditions: 100 ppm foliar spray plus root drench approx. 40 ppm a.i./dry soil, 1-2 days before inoculation.
Format: in vivo

Row | SMILES | disease control grading, VENTURIA INAEQUALIS (APPLE)
11 | CON=C(C(=O)OC)c1cccc2c1oc1ccccc12 (single isomer, unassigned) [Compound 18] | 4
12 | CO/N=C(\C(=O)OC)c1ccccc1Oc1ccccc1 [Compound 5, methyl O-methyl(2-phenoxyphenyl)oximino-acetate] | 3 (trace - 5% of disease on untreated plants)
13 | CON=C(C(=O)OC)c1ccccc1Oc1ccc([N+](=O)[O-])cc1 (single isomer, unassigned) [Compound 7] | 3 (trace - 5% of disease on untreated plants)
14 | CON=C(C(=O)OC)c1ccccc1/C=C/c1ccco1 (single isomer, unassigned) [Compound 3] | 4

The molecules below were run on Pyricularia oryzae (rice) (assay: not given). Conditions: 100 ppm foliar spray plus root drench approx. 40 ppm a.i./dry soil, 1-2 days before inoculation.
Format: in vivo

Row | SMILES | disease control grading, P[…] (RICE)
15 | CON=C(C(=O)OC)c1ccccc1NC(=O)c1ccco1 (single isomer, unassigned) [Compound 13] | 0 (60-100% of disease on untreated plants)
16 | CON=C(C(=O)OC)c1cccc2c1oc1ccccc12 (single isomer, unassigned) [Compound 18] | 1 (26-59% of disease on untreated plants)
17 | CO/N=C(\C(=O)OC)c1ccccc1Oc1ccccc1 [Compound 5, methyl O-methyl(2-phenoxyphenyl)oximino-acetate] | 1 (26-59% of disease on untreated plants)
18 | CON=C(C(=O)OC)c1ccccc1Oc1ccc([N+](=O)[O-])cc1 (single isomer, unassigned) [Compound 7] | 0 (60-100% of disease on untreated plants)
19 | CON=C(C(=O)OC)c1ccccc1/C=C/c1ccco1 (single isomer, unassigned) [Compound 3] | 0 (60-100% of disease on untreated plants)

These molecules were tested on Cercospora arachidicola (peanut) (assay: Foliar fungal disease control, Cercospora arachidicola on peanut). Conditions: 100 ppm foliar spray plus root drench approx. 40 ppm a.i./dry soil, 1-2 days before inoculation.
Format: in vivo

Row | SMILES | disease control grading, CERCOSPORA ARACHIDICOLA (PEANUT)
20 | CON=C(C(=O)OC)c1ccccc1NC(=O)c1ccco1 (single isomer, unassigned) [Compound 13] | 2 (6-25% of disease on untreated plants)
21 | CON=C(C(=O)OC)c1cccc2c1oc1ccccc12 (single isomer, unassigned) [Compound 18] | 1 (26-59% of disease on untreated plants)
22 | CO/N=C(\C(=O)OC)c1ccccc1Oc1ccccc1 [Compound 5, methyl O-methyl(2-phenoxyphenyl)oximino-acetate] | 0 (60-100% of disease on untreated plants)
23 | CON=C(C(=O)OC)c1ccccc1Oc1ccc([N+](=O)[O-])cc1 (single isomer, unassigned) [Compound 7] | 0 (60-100% of disease on untreated plants)
24 | CON=C(C(=O)OC)c1ccccc1/C=C/c1ccco1 (single isomer, unassigned) [Compound 3] | 0 (60-100% of disease on untreated plants)

What follows are molecules tested on Plasmopara viticola (vine) (assay: Foliar fungal disease control, Plasmopara viticola on vine). Conditions: 100 ppm foliar spray plus root drench approx. 40 ppm a.i./dry soil, 1-2 days before inoculation.
Format: in vivo

Row | SMILES | disease control grading, PLASMOPARA VITICOLA (VINE)
25 | CON=C(C(=O)OC)c1ccccc1NC(=O)c1ccco1 (single isomer, unassigned) [Compound 13] | 0 (60-100% of disease on untreated plants)
26 | CON=C(C(=O)OC)c1cccc2c1oc1ccccc12 (single isomer, unassigned) [Compound 18] | 4
27 | CO/N=C(\C(=O)OC)c1ccccc1Oc1ccccc1 [Compound 5, methyl O-methyl(2-phenoxyphenyl)oximino-acetate] | 0 (60-100% of disease on untreated plants)
28 | CON=C(C(=O)OC)c1ccccc1Oc1ccc([N+](=O)[O-])cc1 (single isomer, unassigned) [Compound 7] | 3 (trace - 5% of disease on untreated plants)
29 | CON=C(C(=O)OC)c1ccccc1/C=C/c1ccco1 (single isomer, unassigned) [Compound 3] | 0 (60-100% of disease on untreated plants)

What follows are molecules tested on Maize (MZ) (assay: Plant growth regulating whole plant screen, maize). Conditions: 4000 ppm (4 kg/ha) spray, after 2-6 weeks.
Format: in vivo
Description: (§1) This Example illustrates the plant growth regulating properties of compounds 1, 2, 5 and 12-15 of Table I when tested on a whole plant screen against two species of plant. The plant species are identified in Table IV with the leaf stage at which they were sprayed.
(§2) A formulation of each chemical was applied at 4000 ppm (4 kg/ha in a 1000 1/ha field volume) using a tracksprayer and a SS8004E (Teejet) nozzle.
(§3) After spraying, the plants were grown in a glasshouse with 25° C. day/22° C. night temperatures. Supplementary lighting was supplied when necessary to provide an average photoperiod of 16 hours (14 hours minimum).
(§4) After 2-6 weeks in the glasshouse, depending on species and time of year, the plants were visually assessed for morphological characteristics against a control plant sprayed with a blank formulation.

Row | SMILES | P = Phytotoxicity
30 | CO/N=C(\C(=O)OC)c1ccccc1Oc1ccccc1 [Compound 5, methyl O-methyl(2-phenoxyphenyl)oximino-acetate] | 1 (less than 10%)

Same assay, conditions: 4000 ppm (4 kg/ha) spray, visual score after 2-6 weeks

Row | SMILES | I = Interligular or internodal length reduction | R = Retardation | A = Apical damage
31 | CON=C(C(=O)OC)c1ccccc1NC(=O)c1ccccc1 (single isomer, unassigned) [Compound 12] | 1 (10-30%) | 2 (31-60%) | –
32 | CON=C(C(=O)OC)c1ccccc1NC(=O)c1ccco1 (single isomer, unassigned) [Compound 13] | 1 (10-30%) | 2 (31-60%) | –
33 | CO/N=C(\C(=O)OC)c1ccccc1Oc1ccccc1 [Compound 5, methyl O-methyl(2-phenoxyphenyl)oximino-acetate] | 3 (61-100%) | 3 (61-100%) | 3 (61-100%)

These molecules were tested on Apple (AP) (assay: Plant growth regulating whole plant screen, apple). Conditions: 4000 ppm (4 kg/ha) spray, visual score after 2-6 weeks.
Format: in vivo
Description: as §1, §2, §3, §4

Row | SMILES | G = Greening effect | I = Interligular or internodal length reduction | R = Retardation
34 | CON=C(C(=O)OC)c1ccccc1NC(=O)c1cccs1 (single isomer, unassigned) [Compound 15] | 1 (10-30%) | 1 (10-30%) | 1 (10-30%)
35 | CON=C(C(=O)OC)c1ccccc1NC(=O)c1ccco1 (single isomer, unassigned) [Compound 14] | – | 1 (10-30%) | 1 (10-30%)
36 | CON=C(C(=O)OC)c1ccccc1NC(=O)c1ccccc1 (single isomer, unassigned) [Compound 12] | 1 (10-30%) | 1 (10-30%) | 2 (31-60%)
37 | CON=C(C(=O)OC)c1ccccc1NC(=O)c1ccco1 (single isomer, unassigned) [Compound 13] | 1 (10-30%) | 1 (10-30%) | 2 (31-60%)
